Reference: ChEMBL document CHEMBL1157539, “Thousands of chemical starting points for antimalarial lead identification” (Nature, 2010)

These molecules were tested on Plasmodium falciparum (assay: GSK_TCMDC: Inhibition of Plasmodium falciparum 3D7 in whole erythrocytes, using parasite LDH activity as an index of growth.). Settings: Plasmodium falciparum, 3D7.
Type: functional, organism-based
Work on `CN(c1cc(NC(=O)c2ccc(F)cc2)ccn1)C1CCN(Cc2ccc(C#N)cc2)CC1` yielded an XC50 of 1510 nM.
With `O=C(Nc1cccc(CN2CCCN(Cc3ccc(F)cc3)CC2)c1)c1ccc(Cl)c(Cl)c1` the XC50 was 958 nM.
`Cc1nnc(NC(=O)c2cn(-c3ccccc3)nc2-c2ccccc2C)o1` gave an XC50 of 565 nM.
Molecule `O=C(NC1CCC(CN2CCC(c3c[nH]c4ccccc34)CC2)CC1)NC12CC3CC(CC(C3)C1)C2` (stereo not given) has an XC50 of 1060 nM.
Work on `Cc1noc(C)c1-c1ccc2c(Nc3ccc(C#N)cc3)c(C(N)=O)cnc2c1` yielded an XC50 of 755 nM.
For `COc1cc(C(=O)NC2CC(C)(C)NC(C)(C)C2)ccc1-c1cc2cc(Cl)c(Cl)cc2[nH]1`, the XC50 was 724 nM.
Work on `CCOc1cc2c(cc1OCC)C(c1ccc(O)c(Cl)c1)NCC2` (stereo not given) yielded an XC50 of 790 nM.
With `CCOC(=O)C(C(=O)OCC)c1nc(C)ns1` the XC50 was 471 nM.
`O=C(NCCNc1ccnc2cc(Cl)ccc12)c1ccccc1F` was tested, and the XC50 was 655 nM.
`Nc1c(-c2ccc(C(=O)NCCNCc3ccccc3)cc2)cnn1-c1ccc(C(F)(F)F)cc1` gave an XC50 of 1160 nM.
`CCOC(=O)NCCSC(C)(C)[C@H](NC(=O)[C@H](Cc1cc2ccccc2s1)[C@H](CC)N(O)C=O)C(=O)Nc1nccs1` gave an XC50 of 296 nM.
`COc1ccc2[nH]c(C)cc(=NN=Cc3cccc(F)c3)c2c1` was tested, and the XC50 was 285 nM.
Work on `COc1ccc(NC(=O)Nc2ccc(C)c(-c3ccc(C(=O)Nc4ccncc4)cc3)c2)cc1` yielded an XC50 of 572 nM.
Molecule `O=C(NC1CCN(Cc2ccccc2)CC1)c1cccc(-c2nc3ccc(Cl)cc3[nH]2)c1` has an XC50 of 864 nM.
In the case of `Cc1ccc(Cn2ncc(N3CCNCC3)c(Cl)c2=O)cc1NC(=O)Nc1ccc(-c2ccccc2)cc1`, the XC50 is reported as 1120 nM.
With `C=CCn1c(SCC(=O)Nc2cc(C)ccc2OC)nc2sc(C)cc2c1=O` the XC50 was 417 nM.
For `COc1ccc2nccc(N3CCC(CCNCc4cc5c(cn4)OCCO5)CC3)c2c1`, the XC50 was 874 nM.
`COc1cc(CN/C(=N/c2ccc(-c3ccccc3)cc2)Nc2ccc(C#N)cc2O)cc(OC)c1` gave an XC50 of 718 nM.
Work on `Cc1cccc2nc(-c3ccc(-c4ccc(CN5CCCCC5CO)cc4)cc3)[nH]c12` (stereo not given) yielded an XC50 of 808 nM.
Work on `COc1ccc2cc(C=NNc3nc4ccccc4[nH]3)c(Cl)nc2c1` yielded an XC50 of 653 nM.
For `CC(=O)Nc1ncc(C(=O)Nc2ccc(-c3cccc(-c4nc5cc(F)ccc5[nH]4)c3)cc2)s1`, the XC50 was 354 nM.
With `CS(=O)(=O)c1cccc(-c2ccc3oc(C(N)=O)c(NC(=O)c4cccs4)c3c2)c1` the XC50 was 589 nM.
Work on `COc1ccc(CN2CCC(Oc3cccc(NC(=O)c4ccc(C(F)(F)F)cc4)c3)CC2)cc1` yielded an XC50 of 743 nM.
`CC(C)(C)c1ccc(C(=O)Nc2ccc3nc4c(c(N)c3c2)CCCC4)cc1` gave an XC50 of 175 nM.
Work on `Cc1cccc2nc(-c3cccc(-c4ccc(NC(=O)Cc5ccon5)cc4)c3)[nH]c12` yielded an XC50 of 1090 nM.
In the case of `Cc1cccc(N2CCN(Cc3cc(Cl)ccc3O)CC2)c1C`, the XC50 is reported as 771 nM.
`Cc1cccc(C(=O)NCCCN2CCC(NC(=O)/C=C/c3ccc(Cl)c(Cl)c3)CC2)c1` gave an XC50 of 1700 nM.
For `Nc1nc(NCC2CCC(CNS(=O)(=O)c3cccc4ccccc34)CC2)nc2ccccc12` (stereo not given), the XC50 was 804 nM.
`COc1ccc(C2CC(=O)C3=C(C2)NC(C)=C(C(=O)OC(C)C)C3c2ccccc2F)cc1OC` (stereo not given) gave an XC50 of 61.6 nM.
With `CC1(C)N=C(N)N=C(N)N1OCc1ccc2c(c1)OCO2` the XC50 was 3.68 nM.
`Cn1nc(C(F)(F)F)c(-c2ccc(Br)cc2)c1NC(=O)Cc1ccccc1F` gave an XC50 of 157 nM.
`COc1ccc2nccc([C@@H](O)CN3CCC(NCCNc4ccccn4)CC3)c2c1` showed an XC50 of 741 nM.
Molecule `O=C(c1cc(-c2ccccc2O)on1)N1CCN(C(c2ccccc2)c2ccccc2)CC1` has an XC50 of 335 nM.
`Cc1[nH]c2ccc(O)cc2c1C1CCN(CC2CCN(C(=O)/C=C/c3ccc(Cl)c(Cl)c3)CC2)CC1` showed an XC50 of 998 nM.
In the case of `Cc1cc2cc(/C=C/C(=O)NC3CCC(CCN4CCc5ccc(C#N)cc5CC4)CC3)ccc2[nH]1` (stereo not given), the XC50 is reported as 880 nM.
In the case of `COc1ccc(-c2cccc(NC(=O)c3ccc(C#N)cc3)c2)cc1CN1CCN(C)CC1`, the XC50 is reported as 990 nM.
`O=C(Nc1ccc(-c2nc3ccccc3[nH]2)cc1)C1CCN(Cc2ccccc2)CC1` gave an XC50 of 1760 nM.
Molecule `CC(CN(C)C)C(=O)Nc1ccc(-c2ccc(-c3nc4ccccc4[nH]3)cc2)cc1` (stereo not given) has an XC50 of 741 nM.
With `Brc1ccc(Nc2nc(NCC3CCCO3)c3ccccc3n2)cc1` (stereo not given) the XC50 was 584 nM.
`CCC[C@@H]([C@@H](CC(C)C)C(=O)N[C@@H](CCC/N=C(/N)NS(C)(=O)=O)C(=O)Nc1nccs1)N(O)C=O` was tested, and the XC50 was 941 nM.
In the case of `FC(F)(F)c1ccc2[nH]c(-c3ccc(-c4ccc(CNCc5cnn(-c6ccccc6)n5)cc4)cc3)nc2c1`, the XC50 is reported as 433 nM.
`CN(C)c1ccc(-c2ccc(C(=O)NC3CCN(Cc4ccc(C(C)(C)C)cc4)CC3)s2)cc1` gave an XC50 of 970 nM.
Work on `Cc1ccc(N2CCc3c(-c4cc5cccnc5nc4C)cc(C)nc32)c(Cl)c1` yielded an XC50 of 577 nM.
Molecule `CCOc1ccccc1NC(=O)C(Sc1nc(C)cc(C)c1C#N)c1ccccc1` (stereo not given) has an XC50 of 373 nM.
With `COc1ccc2ncc(F)c(CCN3CC[C@@H](CNCc4ccc5c(c4C)OCCO5)C3)c2n1` the XC50 was 1030 nM.
`O=C1C([N+](=O)[O-])=C(O)c2c(F)cccc21` was tested, and the XC50 was 149 nM.
`CN(CC(=O)Nc1cc(C(F)(F)F)ccc1-n1cncn1)Cc1nc2ccccc2s1` gave an XC50 of 1410 nM.
With `Cc1cc(NC(=O)c2cc(S(=O)(=O)N3CCCCC3)ccc2C)no1` the XC50 was 725 nM.
`COc1ccc(-c2nc3cc4ccccc4nc3[nH]2)c(OCC(O)CNC(C)C)c1` (stereo not given) gave an XC50 of 694 nM.
In the case of `Cc1cc(N[C@@H](CC(C)C)C(=O)NCCOc2ccccc2)nc(NCC2CCCCC2)n1`, the XC50 is reported as 972 nM.
`O=C(Nc1ccc(-c2nc3ccccc3[nH]2)cc1)C1CCN(Cc2ccc(F)cc2)CC1` showed an XC50 of 838 nM.
Molecule `Cc1cc(C)cc(OCC(O)CN(Cc2cc(Cl)cc(Cl)c2)C(=O)Nc2ccc([N+](=O)[O-])cc2)c1` (stereo not given) has an XC50 of 804 nM.
In the case of `O=C(Nc1ccc(Cl)cc1)c1cccc(CN2CCCN(Cc3cccc(O)c3)CC2)c1`, the XC50 is reported as 957 nM.
With `CN(C)/C(=N/C(=N)NCc1ccc(Cl)c(Cl)c1)NCCCCCCN/C(=N\C(=N)NCc1ccc(Cl)c(Cl)c1)N(C)C` the XC50 was 304 nM.
Work on `COc1ccc(CNC2Cc3ccccc3C2)cc1-c1ccc(S(=O)(=O)NCc2cccnc2)s1` yielded an XC50 of 1110 nM.
`COc1ccc(/C=C/C(=O)NCCCCCN2CCC(c3c[nH]c4ccccc34)CC2)cc1O` was tested, and the XC50 was 957 nM.
Work on `CNCC(C)(C)c1nc(-c2ccc(Cl)c(O)c2)c(-c2ccncc2)[nH]1` yielded an XC50 of 736 nM.
`COc1cccc2cc(C(=O)N[C@@H](CC(C)C)C(=O)N[C@H](/C=N/NC(=O)N3CCN(C)CC3)CCc3ccccc3)oc12` was tested, and the XC50 was 616 nM.
With `Cn1nc(-c2ccc(NC(=O)Nc3ccc4ccccc4c3)c(F)c2)c2cnc(NCCN3CCOCC3)nc21` the XC50 was 1020 nM.
Work on `CCC[C@@H]([C@@H](CC1CCC(C)CC1)C(=O)N[C@@H](CO)C(=O)Nc1nccs1)N(O)C=O` (stereo not given in full) yielded an XC50 of 325 nM.
For `COc1cccc(CNC(=O)c2ccnc(-c3ccc(CNCCOc4ccccc4)cc3)c2)c1`, the XC50 was 1200 nM.
`CCNc1cc(C(=O)N[C@@H](Cc2ccccc2)[C@H](O)CNC2C3CC4CC(C3)CC2C4)cc(N2CCCCS2(=O)=O)c1` (stereo not given in full) gave an XC50 of 668 nM.
`CCNc1cc(C)nc(Nc2ccc(NC(=O)c3ccco3)cc2)n1` was tested, and the XC50 was 1090 nM.
`Ic1cc(CNC2CCCCC2)ccc1OCc1cccc(COc2ccc(CNC3CCCCC3)cc2I)c1` showed an XC50 of 829 nM.
`O=C(NC(c1ccccc1)c1ccccc1)C(c1cc2ccccc2o1)N1CCN(C(c2ccccc2)c2ccccc2)CC1` (stereo not given) gave an XC50 of 679 nM.
For `CCN(CC)S(=O)(=O)n1ncc2c3c(N)nc(N)nc3ccc21`, the XC50 was 54.9 nM.
Molecule `Cc1ccc(NS(=O)(=O)c2cccs2)cc1-c1cccc(C(=O)Nc2ccc(F)cc2)c1` has an XC50 of 653 nM.
Molecule `O=C(NCCCCCN1CCC(c2c[nH]c3ccccc23)CC1)Nc1ccc(I)c(Cl)c1` has an XC50 of 969 nM.
For `COc1ccc(CN2CCC(NCc3cccc([N+](=O)[O-])c3)CC2)cc1`, the XC50 was 910 nM.
Work on `CN(C)Cc1cccc(-c2ccc3ccnc(N)c3c2)c1` yielded an XC50 of 122 nM.
In the case of `CN1CCN(Cc2cc3cc(NC(=O)/C=C/c4ccc(Cl)cc4)ccc3s2)CC1`, the XC50 is reported as 767 nM.
With `c1ccc(C23NC(=Nc4nc5ccccc5[nH]4)NC2(c2ccccc2)NC(=Nc2nc4ccccc4[nH]2)N3)cc1` (stereo not given) the XC50 was 276 nM.
For `Cc1cccc2nc(-c3ccc(-c4cccc(CNCc5cnn(-c6ccccc6)n5)c4)s3)[nH]c12`, the XC50 was 551 nM.
`CC1CN(c2ncc(-c3ccc(CNC4Cc5ccccc5C4)cc3)cn2)CC(C)N1` (stereo not given) showed an XC50 of 1160 nM.
`O=C(Nc1nc2cc(S(=O)(=O)NCc3ccc(Cl)c(Cl)c3)ccc2n1CCCN1CCCC1)c1ccc(Cl)cc1` gave an XC50 of 939 nM.
`CC(Cc1ccc(C(=O)OCCOC(=O)c2ccc(CC(C)NCC(O)c3cccc(C(F)(F)F)c3)cc2)cc1)NCC(O)c1cccc(C(F)(F)F)c1` (stereo not given) showed an XC50 of 820 nM.
With `Cc1ccc(NC(=O)c2ccc(CN3CCCN(CCC(C)C)CC3)cc2)cc1F` the XC50 was 609 nM.
Work on `O=[N+]([O-])c1cccc(NC(=S)N2CCCN(Cc3ccc(Cl)cc3Cl)CC2)c1` yielded an XC50 of 925 nM.
For `O=C(NCC1CCC(C(=O)NCCN2CCCCC2)CC1)c1ccc(O)c(-c2ccc(Cl)c(Cl)c2)c1` (stereo not given), the XC50 was 1170 nM.
`c1ccc(CNCc2cccc(-c3ccc(-c4nc5ccccc5[nH]4)cc3)c2)cc1` was tested, and the XC50 was 822 nM.
`CCCNC(=O)CN1CN(c2ccccc2)C2(CCN(C(=O)c3ccc(C(C)(C)C)cc3)CC2)C1=O` showed an XC50 of 466 nM.
`Cc1[nH]c2cc(Cl)ccc2c1C1=CCN(CCCCC2(C)C(=O)Nc3c(F)cccc32)CC1` (stereo not given) was tested, and the XC50 was 843 nM.
With `Cc1nc(SCC(=O)N2CCCC2=O)c2c(C)c(C)sc2n1` the XC50 was 170 nM.
For `C=Cc1cc(OC)c2c(c1)c(=O)oc1c2cc(OC)c2c(O)ccc([C@H]3O[C@H]([C@H](C)O)[C@H](O)[C@H]3O)c21`, the XC50 was 794 nM.
For `COc1cccc(-c2cc3nc4c(c(NCCCn5ccnc5)n3n2)CCCC4)c1`, the XC50 was 681 nM.
Molecule `CS(=O)(=O)Cc1ccc(Nc2nccc(-c3c(-c4cccc(NC(=O)c5c(F)cccc5F)c4)nn4ccccc34)n2)cc1` has an XC50 of 150 nM.
For `COc1ccc(-c2ccc3c(-c4ccc(F)cc4)cnc(N)c3c2)cn1`, the XC50 was 388 nM.
For `COc1cc(CNCCCCCCNCc2cc(OC)c(OC)c3ccccc23)c2ccccc2c1OC`, the XC50 was 235 nM.
With `O=C(NCc1ccc(Cl)c(Cl)c1)[C@H]1CNCCN1C(=O)c1ccccc1` the XC50 was 955 nM.
`CCCCCCCc1cc(O)c2c(c1)OC(C)(C)c1ccncc1-2` was tested, and the XC50 was 1150 nM.
For `COc1cc(C(=O)Nc2cccc(-c3nc4ccccc4[nH]3)c2)ccc1OC(C)=O`, the XC50 was 762 nM.
Work on `Cc1noc(C)c1-c1cccc(CNCc2cccc(-c3ccc(-c4nc5cccc(C)c5[nH]4)s3)c2)c1` yielded an XC50 of 211 nM.
Work on `O=C(Nc1cccc(CN2CCN(Cc3cccc(O)c3)CC2)c1)c1cc2ccccc2s1` yielded an XC50 of 1120 nM.
`CCCOc1ccc(CCCON2C(N)=NC(N)=NC2(C)C)cc1` showed an XC50 of 3.2 nM.
`Cn1cncc1C(=O)Nc1cccc(-c2csc(-c3nc4ccccc4[nH]3)c2)c1` showed an XC50 of 447 nM.
